Laboratory results as given in patent publication US6525001B1, “Substituted pyrimidine and pyridine herbicides” (Mid-American Commercialization Corporation, priority 1997, dated 2003).

Assays:
Format in all cases: in vivo
[1] = system: Russian thistle (Salsola kali); experiment: Test E pre-/postemergence/post directed; settings: PREEMERGENCE
How it was run: (§1)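 Three application modes in greenhouse pots: preemergence soil spray, postemergence foliar spray at two to four leaves, and post-directed spray to soil and plant base. Ratings of 0–100 injury, assigned visually against untreated controls 13 to 21 days later.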

[2] = system: Italian ryegrass (Lolium multiflorum); experiment: Test D; design: key: 0 is no effect; 10 is complete control; settings: PREEMERGENCE, Rate 62 g/ha
[3] = system: downy brome (Bromus tectorum); experiment: Test D; design: key: 0 is no effect; 10 is complete control; settings: PREEMERGENCE, Rate 62 g/ha
[4] = system: wild buckwheat (Polygonum convolvulus); experiment: Test D; design: key: 0 is no effect; 10 is complete control; settings: PREEMERGENCE, Rate 62 g/ha
[5] = system: pitted morningglory (Ipomoea lacunosa); experiment: Test E pre-/postemergence/post directed; design: key: 0 is no injury; 100 is complete control; settings: PREEMERGENCE
How it was run: as §1

[6] = system: wild buckwheat (Polygonum convolvulus); experiment: Test D; design: key: 0 is no effect; 100 is complete control; settings: PREEMERGENCE, Rate 125 g/ha
[7] = system: Italian ryegrass (Lolium multiflorum); experiment: Test D; design: key: 0 is no effect; 100 is complete control; settings: PREEMERGENCE
[8] = system: barnyardgrass (Echinochloa crus-galli); experiment: Test E pre-/postemergence/post directed; design: key: 0 is no effect; 100 is complete control; settings: PREEMERGENCE
How it was run: as §1

## Cc1cnc(-c2ccc(C(F)(F)F)cc2)nc1Cc1cccc(OC(F)(F)F)c1 [Compound 15]
[1]; Rate 32 g/ha
  Plant response rating, Russian thistle: 70
[1]; Rate 64 g/ha
  Plant response rating, Russian thistle: 90
[1]; Rate 125 g/ha
  Plant response rating, Russian thistle: 95
[1]; Rate 250 g/ha
  Plant response rating, Russian thistle: 95

## CCc1cnc(-c2ccc(C(F)(F)F)cc2)nc1Cc1cccc(C(F)(F)F)c1 [Compound 22]
[2]
  Plant response rating, I. Ryegrass: 0
[3]
  Plant response rating, Downy brome: 0
[4]
  Plant response rating, Wild buckwheat: 0

## COc1cnc(-c2ccc(C(F)(F)F)cc2)nc1Cc1cccc(C(F)(F)F)c1 [Compound 23]
[5]; Rate 32 g/ha
  Plant response rating, P. morninglory: 0
[5]; Rate 64 g/ha
  Plant response rating, P. morninglory: 0

## Cc1cnc(-n2ccc(C(F)(F)F)n2)nc1Cn1ccc(C(F)(F)F)n1 [Compound 52]
[6]
  Plant response rating, Wild buckwheat: 100

## Cc1cnc(-c2ccc(C(F)(F)F)cc2)nc1Cc1cccc(C(F)(F)F)c1 [Example 1, 5-methyl-2-[4-(trifluoromethyl)phenyl]-4-[[3-(trifluoromethyl)phenyl]methyl]pyrimidine]
[7]; Rate 125 g/ha
  Plant response rating, I. Ryegrass: 100
[7]; Rate 250 g/ha
  Plant response rating, I. Ryegrass: 100

## Cc1cnc(-n2ccc(C(F)(F)F)n2)nc1Cc1cccc(C(F)(F)F)c1 [Example 2, 5-methyl-4-[[3-(trifluoromethyl)phenyl]methyl]-2-[3-(trifluoromethyl)-1H-pyrazol-1-yl]pyrimidine]
[8]; Rate 125 g/ha
  Plant response rating, Barnyardgrass: 100
[8]; Rate 250 g/ha
  Plant response rating, Barnyardgrass: 100
